Structures can show the parent of a compound that is named as a salt.
Each compound was assayed on PRKACA-PRKAR2A interaction (SmBiT-PRKACA / LgBiT-PRKAR2A), protein kinase A. Settings: 0.5 h, 20 µM; inhibitor.
Set-up: NanoLuc complementation counter-screen in cell extract, PRKACA with PRKAR2A, loss of luminescence, detects NanoLuc interference

With `CC(C)OC(=O)[C@H](C)N[P@](=O)(CO[C@H](C)Cn1cnc2c(N)ncnc21)Oc1ccccc1` [UM0142821:01, GS-7340] the “Inh (PKA)” value was 0.4788.

Same assay, conditions: counter-screen for NanoLuc interference, 0.5 h, 20 µM, inhibitor, Inh (PKA)

In order of rising “Inh (PKA)” value:
1. NCCc1c[nH]cn1 [UM0142362:01, Histamine Phosphate]  -0.9808%
2. CC(=O)O[C@@]12CO[C@@H]1C[C@H](O)[C@@]1(C)C(=O)[C@H](O)C3=C(C)[C@@H](OC(=O)[C@H](O)[C@@H](NC(=O)OC(C)(C)C)c4ccccc4)C[C@@](O)([C@@H](OC(=O)c4ccccc4)[C@H]21)C3(C)C [UM0141543:01, Docetaxel Trihydrate]  1.786%
3. COc1ccc2[nH]c([S@@+]([O-])Cc3ncc(C)c(OC)c3C)nc2c1 [UM0142444:01, Esomeprazole Magnesium]  3.498%
4. CCCCCCOC(=O)NC(=N)c1ccc(NCc2nc3cc(C(=O)N(CCC(=O)OCC)c4ccccn4)ccc3n2C)cc1 [UM0142023:01, BIBR-1048]  4.293%
5. CCOC(=O)[C@H](C)C[C@@H](Cc1ccc(-c2ccccc2)cc1)NC(=O)CCC(=O)O [UM0142165:01, AHU-377(Sacubitril)]  9.484%
6. CC(=O)Oc1cc2c(s1)CCN(C(C(=O)C1CC1)c1ccccc1F)C2 (stereo not shown) [UM0142193:01, Prasugrel hydrochloride]  10.44%
7. CC(C)(C)c1nc(-c2cccc(NS(=O)(=O)c3c(F)cccc3F)c2F)c(-c2ccnc(N)n2)s1 [UM0141540:01, Dabrafenib Mesylate (GSK-2118436)]  39.79%
8. CN(c1ncccc1CNc1nc(Nc2ccc3c(c2)CC(=O)N3)ncc1C(F)(F)F)S(C)(=O)=O [UM0141986:01, PF-00562271]  56.79%

Same assay, conditions: counter-screen for NanoLuc interference; 0.5 h, 20 µM; inhibitor

In order of rising “Inh (PKA)” value:
1. CCCN1CCN(c2ccc(C(=O)NC3(C(=O)NCC#N)CCCCC3)cc2)CC1 [UM0142500:01, Balicatib]  -0.9688%
2. C[C@H]1[C@H](C)CC[C@]2(C(=O)O[C@@H]3O[C@H](CO[C@@H]4O[C@H](CO)[C@@H](O[C@@H]5O[C@H](C)[C@H](O)[C@@H](O)[C@H]5O)[C@H](O)[C@H]4O)[C@@H](O)[C@H](O)[C@H]3O)CC[C@]3(C)C(=CC[C@@H]4[C@@]5(C)C[C@@H](O)[C@H](O)[C@@](C)(CO)[C@@H]5CC[C@]43C)[C@H]12 [UM0142844:01, Asiaticoside]  -0.7873%
3. CCCNC(=O)[C@H]1O[C@@H]1C(=O)N[C@H](C(=O)N1CCC[C@H]1C(=O)OC)[C@@H](C)CC [UM0141967:01, CA-074 Me]  -0.4464%
4. CCCCCCCCCc1ccc(B(O)O)cc1 [UM0142836:01, 4-(n-nonyl) Benzeneboronic Acid]  -0.3283%
5. Oc1ccc(OC2CCCCO2)cc1 (stereo not shown) [UM0142392:01, Deoxyarbutin]  1.229%
6. c1cnc2cc3c(cc2n1)[C@@H]1CNC[C@H]3C1 [UM0141886:01, Varenicline Tartrate]  1.343%
7. COc1c(C)c2c(c(O)c1C/C=C(\C)CCC(=O)O)C(=O)OC2 [UM0132795:02, Mycophenolic acid]  1.414%
8. CC#CCn1c(N2CCC[C@@H](N)C2)nc2c1c(=O)n(Cc1nc(C)c3ccccc3n1)c(=O)n2C [UM0141673:01, Linagliptin (BI-1356)]  1.695%
9. O=C(O)CCNc1cc(N2CCc3ccccc3CC2)nc(-c2ccccn2)n1 [UM0141755:01, GSK J1]  1.8%
10. CCN(CC)Cc1ccc2cc(COC(=O)Nc3ccc(C(=O)NO)cc3)ccc2c1 [UM0141700:01, ITF2357 (Givinostat)]  1.847%
11. NCCc1ccc(O)c(O)c1 [UM0119875:03, Dopamine HCl]  1.983%
12. COc1cc2nc(N3CCN(C(=O)C4COc5ccccc5O4)CC3)nc(N)c2cc1OC (stereo not shown) [UM0118850:03, Doxazosin Mesylate]  2.176%
13. O=C(c1cc(Cc2n[nH]c(=O)c3ccccc23)ccc1F)N1CCN(C(=O)C2CC2)CC1 [UM0135473:02, Olaparib (AZD2281, Ku-0059436)]  2.339%
14. CCN(CC)CCCC(C)Nc1nc(C)cc(Nc2ccc3nc(C)cc(N)c3c2)n1 (stereo not shown) [UM0141436:01, NSC 23766]  2.521%
15. Nc1ccc(S(=O)(=O)Nc2ccnn2-c2ccccc2)cc1 [UM0118414:03, Sulfaphenazole]  2.527%
16. O=C(Nc1cc(Cl)cc2c1[nH]c1cnccc12)c1cccnc1 [UM0142732:01, PS-1145]  3.261%
17. CC(/C=C/C(=O)NO)=C\[C@@H](C)C(=O)c1ccc(N(C)C)cc1 [UM0128540:02, Trichostatin A (TSA)]  3.519%
18. CC[C@@H]([C@H](C)O)n1ncn(-c2ccc(N3CCN(c4ccc(OC[C@@H]5CO[C@@](Cn6cncn6)(c6ccc(F)cc6F)C5)cc4)CC3)cc2)c1=O [UM0141411:01, Posaconazole]  3.84%
19. CN(C)CCCN1c2ccccc2CCc2ccccc21 [UM0118324:03, Imipramine (hydrochloride)]  3.952%
20. CCn1c(C(=O)N(C2CC2)C2CC2)cc2c3c(ncn3C)c(Nc3cc(C)n(C)n3)nc21 [UM0141734:01, BMS-911543]  4.215%
21. CN1C(C(=O)Nc2ccccn2)=C(O)c2ccccc2S1(=O)=O [UM0134086:02, Piroxicam]  4.329%
22. CC(C)c1nc(CN(C)C(=O)N[C@@H](CCN2CCOCC2)C(=O)N[C@H](CC[C@H](Cc2ccccc2)NC(=O)OCc2cncs2)Cc2ccccc2)cs1 [UM0141776:01, Cobicistat (GS-9350)]  4.362%
23. CCC1=C(C)CN(C(=O)NCCc2ccc(S(=O)(=O)NC(=O)N[C@H]3CC[C@H](C)CC3)cc2)C1=O [UM0134252:02, Glimepiride]  4.382%
24. N=C(N)NC(=O)Cc1c(Cl)cccc1Cl [UM0141560:01, Guanfacine hydrochloride]  4.541%
25. Cc1cccc(-c2[nH]c(C(C)(C)C)nc2-c2ccc3nccnc3c2)n1 [UM0141897:01, SB525334]  4.915%
26. COc1ccc2c(c1)c(CC(=O)O)c(C)n2C(=O)c1ccc(Cl)cc1 [UM0118515:03, Indomethacin]  5.004%
27. CNCCC(Oc1ccc(C(F)(F)F)cc1)c1ccccc1 (stereo not shown) [UM0118682:03, Fluoxetine HCl]  5.529%
28. CC[C@@H](C)Nc1cc(C(=O)N[C@H]2C[C@H]3CC[C@@H](C2)N3c2ccc(C(=O)C3CC3)cn2)c(C)cc1C(N)=O [UM0141828:01, XL-888]  5.956%
29. CC(=O)[C@H]1CC[C@H]2[C@@H]3CC=C4C[C@@H](O)CC[C@]4(C)[C@H]3CC[C@]12C [UM0142285:01, Pregnenolone]  6.585%
30. Nc1ccc(O)c(C(=O)O)c1 [UM0119062:03, Mesalamine]  8.926%
31. CCOC(=O)c1ccc(NC2CCCCC2)c(N)c1 [UM0065946:02, Ferrostatin-1 (Fer-1)]  10.75%
32. NC(=O)N1CCC(CC(=O)N2CCC([C@H]3c4ncc(Br)cc4CCc4cc(Cl)cc(Br)c43)CC2)CC1 [UM0141820:01, Lonafarnib]  11.04%
33. CS(=O)(=O)c1ccc(-c2cnc(N)c(C(=O)Nc3ccccc3)n2)cc1 [UM0135461:02, VE-821]  11.31%
34. Cn1cc(-c2ccc3c(c2)CCN3C(=O)Cc2cccc(C(F)(F)F)c2)c2c(N)ncnc21 [UM0141558:01, GSK2606414]  15.1%
35. CC(C(=O)O)c1ccc2c(c1)CC(=O)c1ccccc1S2 (stereo not shown) [UM0142265:01, Zaltoprofen]  16.72%
36. O=C(NCc1ccc(Oc2ccccc2)cc1)c1nc(-c2cc(Br)c(O)c(Br)c2)no1 [UM0142105:01, IOWH-032]  17.03%
37. Cc1ccc(Sc2ccccc2N2CCNCC2)c(C)c1 [UM0141466:01, Vortioxetine (Lu AA21004) HBr]  18.25%
38. O=S(=O)(NCCSSCCNS(=O)(=O)c1cc(Cl)ccc1Cl)c1cc(Cl)ccc1Cl [UM0141849:01, KC7F2]  19.45%
39. CCc1c(C(=O)NNC(=O)C(O)c2cc(F)cc(F)c2)ccc(O)c1C (stereo not shown) [UM0141549:01, EMD638683]  19.67%
40. O=C(NC[C@H](O)CO)c1ccncc1Nc1ccc(I)cc1F [UM0141896:01, Pimasertib (AS-703026)]  20.8%
41. CN1CCN(c2ccc(OC(F)(F)F)c(Nc3ncc4c(n3)-c3c(c(C(N)=O)nn3CCO)CC4)c2)CC1 [UM0142553:01, NMS-1286937]  23.22%
42. CNCC[C@H](Oc1cccc2ccccc12)c1cccs1 [UM0133232:02, Duloxetine HCl]  23.56%
43. Nc1cccc(-c2cc3c(Oc4cccc(O)c4)ncnc3[nH]2)c1 [UM0127862:03, TWS119]  24.46%
44. CC(C)[C@H](CO)Nc1nc(Nc2ccc(C(=O)O)c(Cl)c2)c2ncn(C(C)C)c2n1 [UM0142090:01, Purvalanol B]  25.51%
45. CCn1c(-c2nonc2N)nc2c(C#CC(C)(C)O)ncc(OC[C@H]3CCCNC3)c21 [UM0141867:01, GSK690693]  29.62%
46. O=C(NC(NC(=S)Nc1ccc(F)c([N+](=O)[O-])c1)C(Cl)(Cl)Cl)C(c1ccccc1)c1ccccc1 (stereo not shown) [UM0142099:01, CGK733]  35.68%
47. Cc1ccc(C(=O)Nc2ccc(CN3CCN(C)CC3)c(C(F)(F)F)c2)cc1C#Cc1cnc2cccnn12 [UM0141892:01, Ponatinib (AP24534)]  38.47%
48. COc1cccc2c1C(=O)c1c(O)c3c(c(O)c1C2=O)C[C@@](O)(C(C)=O)C[C@@H]3O[C@H]1C[C@H](N)[C@H](O)[C@H](C)O1 [UM0118677:04, Daunorubicin HCl]  42.12%
49. CCOC(=O)C1=CCCC[C@H]1S(=O)(=O)Nc1ccc(F)cc1Cl [UM0141634:01, TAK-242]  47.57%
50. CN(C)S(=O)(=O)c1ccc2c(c1)/C(=C/c1cc3c([nH]1)CCCC3)C(=O)N2 [UM0142659:01, SU6656]  52.64%
51. Nc1nccc(Oc2ccc(NC(=O)c3c[nH]cc(-c4ccc(F)cc4)c3=O)cc2F)c1Cl [UM0142257:01, BMS-794833]  54.88%
52. CCOC(=O)C1=C(C)NC(C)=C(C(=O)OC)C1c1cccc([N+](=O)[O-])c1 (stereo not shown) [UM0142235:01, Nitrendipine]  91.42%

Reference: paper PMC9995496, “A screen for MeCP2-TBL1 interaction inhibitors using a luminescence-based assay” (Scientific Reports, 2023)
